Experimental data from PubChem BioAssay AID248 (DTP/NCI, 2004).
Several values for one entry are separate records, joined by “and”; a condition that tells them apart may be missing. Equal values may be shown once. Toxic doses and inconclusive results are not listed. Rule as the data show it: active = T/C of 150% or more; inactive = T/C below 125%.

Tested on: L1210 leukemia ip in BDF1 mice, survival T/C
Test: NCI In Vivo Anticancer Drug Screen. Data for tumor model L1210 Leukemia (intraperitoneal) in B6D2F1 (BDF1) mice
Settings: endpoint: mean survival time, higher = longer survival
How it was run: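 Antitumor effect is assessed in tumor-bearing animals. Survival in the compound arm is compared with a vehicle-dosed control arm and expressed as their quotient.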

[1] = dose: 100.0 mg/kg/injection, schedule: Q01DX009 (ip), vehicle: saline with Tween-80
[2] = dose: 200.0 mg/kg/injection, schedule: Q01DX009 (ip), vehicle: saline with Tween-80
[3] = dose: 400.0 mg/kg/injection, schedule: Q01DX009 (ip), vehicle: saline with Tween-80
[4] = dose: 100.0 mg/kg/injection, schedule: Q04DX003 (ip), vehicle: Klucel (hydroxypropylcellulose) (HPC)
[5] = dose: 200.0 mg/kg/injection, schedule: Q04DX003 (ip), vehicle: Klucel (hydroxypropylcellulose) (HPC)
[6] = dose: 100.0 mg/kg/injection, schedule: Q01DX001 (ip), vehicle: carboxymethylcellulose (CMC)
[7] = dose: 200.0 mg/kg/injection, schedule: Q01DX001 (ip), vehicle: carboxymethylcellulose (CMC)
[8] = dose: 400.0 mg/kg/injection, schedule: Q01DX001 (ip), vehicle: carboxymethylcellulose (CMC)
[9] = dose: 50.0 mg/kg/injection, schedule: Q04DX003 (ip), vehicle: Klucel (hydroxypropylcellulose) (HPC)

Measured: T/C

CCOC1CC2(c3ccccc3)OC(=O)OC12c1ccccc1 (stereo not drawn)
inactive: dose: 25.0 mg/kg/injection, schedule: Q04DX002 (ip), vehicle: saline with Tween-80 115 % of control | dose: 50.0 mg/kg/injection, schedule: Q04DX002 (ip), vehicle: saline with Tween-80 101 % of control | dose: 100.0 mg/kg/injection, schedule: Q04DX002 (ip), vehicle: saline with Tween-80 115 % of control

COc1cccc(OC)c1OC(=O)Nc1ccccc1C(F)(F)F
inactive: dose: 100.0 mg/kg/injection, schedule: Q01DX009 (ip), vehicle: saline 98 % of control | dose: 200.0 mg/kg/injection, schedule: Q01DX009 (ip), vehicle: saline 98 % of control | dose: 400.0 mg/kg/injection, schedule: Q01DX009 (ip), vehicle: saline 100 % of control

O=C(O)CS(=O)(=O)c1ccc(Cl)cc1
inactive: [1] 109 % of control | [2] 102 % of control | [3] 86 % of control

Cc1ccc(N=Nc2c(C)nn(C(N)=S)c2C)cc1
inactive: dose: 75.0 mg/kg/injection, schedule: Q01DX001 (ip), vehicle: other 100 % of control | dose: 150.0 mg/kg/injection, schedule: Q01DX001 (ip), vehicle: other 103 % of control

Cn1cc([N+](=O)[O-])c2ccccc2c1=O
inactive: [4] 109 % of control | [5] 120 % of control

Cc1ccccc1Nc1cc(=O)[nH]c(N)n1
inactive: dose: 100.0 mg/kg/injection, schedule: Q01DX Z (ip), vehicle: methylcellulose (MC) 102 % of control | dose: 200.0 mg/kg/injection, schedule: Q01DX Z (ip), vehicle: methylcellulose (MC) 102 % of control

Cc1nc(N)c2c(n1)C(Cc1ccccc1)N(C(=O)c1ccccc1)C2 (stereo not drawn)
inactive: [6] 97 % of control | [7] 97 % of control | [8] 103 % of control

CNc1ccc(C(=O)O)cc1OC
inactive: [1] 95 % of control | [2] 91 % of control | [3] 88 % of control

CC(=O)c1ccccc1C(C)c1ccc(C)c2ccccc12 (stereo not drawn)
inactive: dose: 100.0 mg/kg/injection, schedule: Q04DX002 (ip), vehicle: Klucel (hydroxypropylcellulose) (HPC) 120 % of control | dose: 200.0 mg/kg/injection, schedule: Q04DX002 (ip), vehicle: Klucel (hydroxypropylcellulose) (HPC) 97 % of control | dose: 400.0 mg/kg/injection, schedule: Q04DX002 (ip), vehicle: Klucel (hydroxypropylcellulose) (HPC) 104 % of control

C[N+](C)(C)C1(Cc2ccc(Cl)cc2)c2ccccc2-c2ccccc21
inactive: dose: 12.5 mg/kg/injection, schedule: Q01DX009 (ip), vehicle: Klucel (hydroxypropylcellulose) (HPC) 97 % of control | dose: 12.5 mg/kg/injection, schedule: Q04DX003 (ip), vehicle: Klucel (hydroxypropylcellulose) (HPC) 95 % of control | dose: 25.0 mg/kg/injection, schedule: Q01DX009 (ip), vehicle: Klucel (hydroxypropylcellulose) (HPC) 92 % of control | dose: 25.0 mg/kg/injection, schedule: Q04DX003 (ip), vehicle: Klucel (hydroxypropylcellulose) (HPC) 95 % of control | dose: 50.0 mg/kg/injection, schedule: Q01DX009 (ip), vehicle: Klucel (hydroxypropylcellulose) (HPC) 98 % of control | [9] 92 % of control

COCC(O)CCl (stereo not drawn)
inactive: dose: 25.0 mg/kg/injection, schedule: Q01DX009 (ip), vehicle: saline with Tween-80 113 % of control | dose: 50.0 mg/kg/injection, schedule: Q01DX009 (ip), vehicle: saline with Tween-80 113 % of control | [1] 113 % of control

COC1CCC2CCN(C)C(Cc3ccc(Oc4ccc(CC5C6CC(OC)CCC6CCN5C)cc4)cc3)C2C1 (stereo not drawn)
inactive: dose: 0.39 mg/kg/injection, schedule: Q01DX009 (ip), vehicle: saline with Tween-80 96 % of control | dose: 0.78 mg/kg/injection, schedule: Q01DX009 (ip), vehicle: saline with Tween-80 96 % of control and 108 % of control | dose: 1.56 mg/kg/injection, schedule: Q01DX009 (ip), vehicle: saline with Tween-80 108 % of control | dose: 3.13 mg/kg/injection, schedule: Q01DX009 (ip), vehicle: saline with Tween-80 102 % of control

CN1CC2CCCCC1C2OC(=O)C(c1ccccc1)c1ccccc1 (stereo not drawn)
inactive: dose: 75.0 mg/kg/injection, schedule: Q01DX001 (ip), vehicle: saline 110 % of control | dose: 150.0 mg/kg/injection, schedule: Q01DX001 (ip), vehicle: saline 101 % of control

CN(C)c1nc2ccccc2o1
inactive: [6] 94 % of control | [7] 102 % of control | [8] 105 % of control

Cc1cc(NS(=O)(=O)c2ccc(N)cc2)sn1
inactive: dose: 100.0 mg/kg/injection, schedule: Q04DX003 (ip), vehicle: saline 87 % of control | dose: 200.0 mg/kg/injection, schedule: Q04DX003 (ip), vehicle: saline 92 % of control | dose: 400.0 mg/kg/injection, schedule: Q04DX003 (ip), vehicle: saline 97 % of control

O=S1(=O)N=C(Cl)c2ccccc21
inactive: [9] 105 % of control | [4] 108 % of control | [5] 97 % of control
